What was measured:
in vivo [1] = settings: rat, iv, 3 mg/kg
in vivo [2] = settings: rat, iv, 3 mg/kg; remark: listed apart in the source
in vivo [3] = settings: rat, po, 10 mg/kg
in vivo [4] = settings: rat, iv, 3 mg/kg; remark: listed apart in the source
in vivo [5] = settings: rat, po, 10 mg/kg; remark: listed apart in the source
in vivo [6] = settings: rat, iv, 3 mg/kg; remark: listed apart in the source
in vivo [7] = settings: rat, po, 10 mg/kg; remark: listed apart in the source
in vivo [8] = settings: rat, po, 10 mg/kg; remark: listed apart in the source
in vivo [9] = settings: rat, po, 10 mg/kg; remark: listed apart in the source

For CCOc1cc2ncc(C#N)c(Nc3ccc(OCc4ccccn4)c(Cl)c3)c2cc1NC(=O)/C=C/CN(C)C [NERATINIB], the Vd (in vivo [1]) was 5.01 L/kg, the clearance (in vivo [2]) was 20.8 mL/min/kg and the bioavailability (in vivo [3]) was 18.2%.

For CN(C)C/C=C/C(=O)Nc1ccc2ncnc(Nc3ccc(OCc4ccccn4)c(Cl)c3)c2c1-c1ccccc1, the Vd (in vivo [1]) was 8.1 L/kg, the half-life (in vivo [4]) was 229 min and the clearance (in vivo [2]) was 38.4 mL/min/kg. The half-life (in vivo [5]) was 246 min, the AUC(0-t) (in vivo [6]) was 1290 ng·h/mL and the AUC(0-t) (in vivo [7]) was 1300 ng·h/mL. For the same compound, the bioavailability (in vivo [3]) was 30.4%, the Cmax (in vivo [8]) was 124 ng/mL and the Tmax (in vivo [9]) was 3.67 h.

Work on CN1CCC[C@@H]1/C=C/C(=O)Nc1ccc2ncnc3c2c1CCN3c1ccc(OCc2ccccn2)c(Cl)c1 yielded a Vd (in vivo [1]) of 17.8 L/kg, a half-life (in vivo [4]) of 293 min and a clearance (in vivo [2]) of 74.6 mL/min/kg. It also gave a half-life (in vivo [5]) of 388 min, an AUC(0-t) (in vivo [6]) of 667 ng·h/mL and an AUC(0-t) (in vivo [7]) of 157 ng·h/mL. It also gave a bioavailability (in vivo [3]) of 7.43%, a Cmax (in vivo [8]) of 23.8 ng/mL and a Tmax (in vivo [9]) of 0.5 h.

Reference: ChEMBL document CHEMBL5543120, “Discovery of Novel 5,6-Dihydro-4H-pyrido[2,3,4-de]quinazoline Irreversible Inhibitors Targeting Both Wild-Type and A775_G776insYVMA Mutated HER2 Kinases” (J Med Chem, 2024)
